{"source": "paper PMC3906128", "about": "(Addiction biology, 2011)", "key": {"DOP-R1 [1]": {"target": "T1, DOP-R1 (Rattus norvegicus, UniProt P33533)", "T1 sequence (P33533 whole entry)": "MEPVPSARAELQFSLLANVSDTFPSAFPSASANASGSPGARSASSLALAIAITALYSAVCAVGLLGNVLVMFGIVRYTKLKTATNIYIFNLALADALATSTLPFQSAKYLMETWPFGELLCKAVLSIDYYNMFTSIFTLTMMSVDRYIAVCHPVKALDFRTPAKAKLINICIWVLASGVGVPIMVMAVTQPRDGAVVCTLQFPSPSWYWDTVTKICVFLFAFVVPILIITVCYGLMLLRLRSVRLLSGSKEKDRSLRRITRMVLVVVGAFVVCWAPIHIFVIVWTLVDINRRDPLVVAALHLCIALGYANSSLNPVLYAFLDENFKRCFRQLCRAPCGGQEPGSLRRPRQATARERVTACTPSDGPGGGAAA", "assay": "Inhibition of TAN67-", "type": "biochemical"}, "DOP-R2": {"target": "DOP-R2 (Rattus norvegicus, UniProt P33533)", "sequence (P33533 whole entry)": "as above", "assay": "Deltorphin II-stimulated [35S]GTPγS binding in rat midbrain membranes", "type": "biochemical", "settings": "Mean (± SEM) EC50 for Midbrain Opioid Stimulation, ethanol-trained rats"}, "rats [2]": {"test_system": "rats", "settings": "5 mg/kg I.P., ref Nielsen et al., 2008; cited from earlier work"}, "DOP-R [3]": {"test_system": "DOP-R", "settings": "brain membranes of high-ethanol consuming rats; ref Nielsen et al., 2008; cited from earlier work"}, "MOP-R [4]": {"test_system": "MOP-R", "settings": "ref Ananthan et al., 1999, cited from earlier work"}, "KOP-R": {"test_system": "KOP-R", "settings": "in vitro, ref Wells et al., 2001, Xu et al.; cited from earlier work"}, "DOP-R [5]": {"test_system": "DOP-R", "settings": "ref Ananthan et al., 1999, cited from earlier work"}, "Long-Evans rats": {"test_system": "Long-Evans rats", "assay": "Yohimbine stress-induced reinstatement of 10% ethanol seeking"}, "DOP-R [6]": {"test_system": "DOP-R", "settings": "in vitro, ref Wells et al., 2001, Xu et al.; cited from earlier work"}, "MOP-R [7]": {"test_system": "MOP-R", "settings": "in vitro, ref Wells et al., 2001, Xu et al.; cited from earlier work"}, "rats [8]": {"test_system": "rats", "settings": "elevated plus maze test in rats; ref Nielsen et al., 2008; cited from earlier work"}, "corticosterone (CORT)": {"test_system": "corticosterone (CORT)", "assay": "Plasma corticosterone measurement", "type": "in vivo, rat", "settings": "SoRI-9409 5 mg/kg I.P. prior to yohimbine 2 mg/kg I.P.; P > 0.05"}, "DOP-R1 [9]": {"target": "T1, DOP-R1", "assay": "TAN67-stimulated [35S]GTPγS binding in rat brain membranes", "type": "biochemical", "settings": "for EC50: ethanol-trained rats"}, "[10]": {"settings": "read-out: IC50, inhibition of TAN67-stimulated (10 μmol/L) [35S]GTPγS-binding, midbrain membranes, ethanol-trained rats given SoRI-9409-vehicle prior to yohimbine (2 mg/kg I.P.)"}}, "note": "Where a name gives a salt, the structure may show the parent alone. Read-outs that look alike come from different tables or passages of the source."}
{"smiles": "O=C1/C(=C/c2ccccc2)C[C@@]2(O)[C@H]3Cc4ccc(O)c5c4[C@@]2(CCN3CC2CC2)[C@H]1O5", "note": "[BNTX, 7-benzylidenenaltrexone maleate salt hydrate]", "values": [{"measurement": "IC50", "setting": "DOP-R1 [1]; [10]", "result": "0.037 ± 0.0048", "unit": "µM"}]}
{"smiles": "CC(C)[C@H](NC(=O)[C@H](CCC(=O)O)NC(=O)[C@H](Cc1ccccc1)NC(=O)[C@@H](C)NC(=O)[C@@H](N)Cc1ccc(O)cc1)C(=O)N[C@H](C(=O)NCC(N)=O)C(C)C", "note": "[Deltorphin II, [D-Ala^2]-Deltorphin II]", "values": [{"measurement": "EC50", "setting": "DOP-R2; SoRI-9409 (5 mg/kg I.P.)/Yohimbine (2 mg/kg I.P.)", "result": "22 ± 4", "unit": "µM"}, {"measurement": "EC50", "setting": "DOP-R2; SoRI-9409 (5 mg/kg I.P.)/Yohimbine-vehicle", "result": "> 100", "unit": "µM"}, {"measurement": "EC50", "setting": "DOP-R2; SoRI-9409-vehicle/Yohimbine (2 mg/kg I.P.)", "result": "27 ± 2.9", "unit": "µM"}, {"measurement": "EC50", "setting": "DOP-R2; SoRI-9409-vehicle/Yohimbine-vehicle", "result": "> 100", "unit": "µM"}]}
{"smiles": "Oc1ccc2c3c1O[C@H]1c4ncc(-c5ccc(Cl)cc5)cc4C[C@@]4(O)[C@@H](C2)N(CC2CC2)CC[C@]314", "note": "[SoRI-9409, 5′-(4-Chlorophenyl)-17-(cyclopropylmethyl)-6,7-didehydro-3,14-dihydroxy-4,5-alpha-epoxypyrido[2′,3′:6,7] morphinan]", "values": [{"measurement": "effect on ethanol consumption", "setting": "rats [2]", "result": "selective and long-lasting reductions in ethanol consumption"}, {"measurement": "inhibition of DOP-R-mediated [35S]GTPγS binding", "setting": "DOP-R [3]", "result": "potently inhibits"}, {"measurement": "reduced binding affinity for the MOP-R in comparison to naltrexone", "setting": "MOP-R [4]; compared to naltrexone", "result": "approximately 20 fold"}, {"measurement": "Ki", "setting": "MOP-R [4]; read-out: Ki, binding affinity for the MOP-R", "result": "0.051 ± 0.008", "unit": "µM"}, {"measurement": "agonist activity at KOP-R", "setting": "KOP-R", "result": "no agonist activity"}, {"measurement": "antagonist activity at the KOP-R", "setting": "KOP-R", "result": "weak antagonist activity"}, {"measurement": "higher binding affinity at the DOP-R in comparison to naltrexone", "setting": "DOP-R [5]; compared to naltrexone", "result": "approximately 20 fold"}, {"measurement": "Ki", "setting": "DOP-R [5]; read-out: Ki, binding affinity at the DOP-R", "result": "0.0022 ± 0.0002", "unit": "µM"}, {"measurement": "IC50", "setting": "DOP-R1 [1]; [10]", "result": "0.022 ± 0.0035", "unit": "µM"}, {"measurement": "Inactive lever presses", "setting": "Long-Evans rats; SoRI-9409 1 mg/kg, Vehicle group (yohimbine-vehicle)", "result": "0.8 ± 0.4"}, {"measurement": "Inactive lever presses", "setting": "Long-Evans rats; SoRI-9409 1 mg/kg, Yohimbine group (2 mg/kg I.P.)", "result": "1.7 ± 0.5"}, {"measurement": "Inactive lever presses", "setting": "Long-Evans rats; SoRI-9409 2.5 mg/kg, Vehicle group (yohimbine-vehicle)", "result": "0.3 ± 0.3"}, {"measurement": "Inactive lever presses", "setting": "Long-Evans rats; SoRI-9409 2.5 mg/kg, Yohimbine group (2 mg/kg I.P.)", "result": "1.0 ± 0.4"}, {"measurement": "Inactive lever presses", "setting": "Long-Evans rats; SoRI-9409 5 mg/kg, Vehicle group (yohimbine-vehicle)", "result": "0.2 ± 0.1"}, {"measurement": "Inactive lever presses", "setting": "Long-Evans rats; SoRI-9409 5 mg/kg, Yohimbine group (2 mg/kg I.P.)", "result": "0.6 ± 0.4"}, {"measurement": "effect on responding in rats which did not receive yohimbine", "setting": "Long-Evans rats; SoRI-9409 1-5 mg/kg I.P., yohimbine-vehicle only, P > 0.05", "result": "did not affect responding"}, {"measurement": "agonist activity at DOP-R", "setting": "DOP-R [6]", "result": "no agonist activity"}, {"measurement": "antagonist activity at the DOP-R", "setting": "DOP-R [6]", "result": "potent antagonist activity"}, {"measurement": "agonist activity at MOP-R", "setting": "MOP-R [7]", "result": "no agonist activity"}, {"measurement": "antagonist activity at the MOP-R", "setting": "MOP-R [7]", "result": "weak antagonist activity"}, {"measurement": "anxiogenic or anxiolytic effects", "setting": "rats [8]", "result": "does not produce anxiogenic or anxiolytic effects"}, {"measurement": "Plasma CORT levels of SoRI-9409/yohimbine treated rats vs SoRI-9409-vehicle/yohimbine treated rats", "setting": "corticosterone (CORT)", "result": "not different"}]}
{"smiles": "Br.Br.CN1CC[C@]2(c3cccc(O)c3)Cc3nc4ccccc4cc3C[C@H]2C1", "note": "[TAN67, SB 205607 dihydrobromide]", "values": [{"measurement": "higher TAN67-mediated DOP-R1 activity in yohimbine-treated rats compared to vehicle-treated rats", "setting": "DOP-R1 [9]; midbrain membranes, from Table 2 EC50 values", "result": "> 700", "unit": "fold"}, {"measurement": "EC50", "setting": "DOP-R1 [9]; read-out: Mean (± SEM) EC50 for Midbrain Opioid Stimulation, midbrain membranes, SoRI-9409 (5 mg/kg I.P.)/Yohimbine (2 mg/kg I.P.)", "result": "5.2 ± 0.3", "unit": "µM"}, {"measurement": "EC50", "setting": "DOP-R1 [9]; read-out: Mean (± SEM) EC50 for Midbrain Opioid Stimulation, midbrain membranes, SoRI-9409 (5 mg/kg I.P.)/Yohimbine-vehicle", "result": "> 100", "unit": "µM"}, {"measurement": "EC50", "setting": "DOP-R1 [9]; read-out: Mean (± SEM) EC50 for Midbrain Opioid Stimulation, midbrain membranes, SoRI-9409-vehicle/Yohimbine (2 mg/kg I.P.)", "result": "0.14 ± 0.04", "unit": "µM"}, {"measurement": "EC50", "setting": "DOP-R1 [9]; read-out: Mean (± SEM) EC50 for Midbrain Opioid Stimulation, midbrain membranes, SoRI-9409-vehicle/Yohimbine-vehicle", "result": "> 100", "unit": "µM"}, {"measurement": "EC50", "setting": "DOP-R1 [9]; read-out: Mean (± SEM) EC50 for TAN67 Stimulation, Striatum, striatal membranes, SoRI-9409 (5 mg/kg I.P.)/Yohimbine (2 mg/kg I.P.)", "result": "> 100", "unit": "µM"}, {"measurement": "EC50", "setting": "DOP-R1 [9]; read-out: Mean (± SEM) EC50 for TAN67 Stimulation, Striatum, striatal membranes, SoRI-9409 (5 mg/kg I.P.)/Yohimbine-vehicle", "result": "> 100", "unit": "µM"}, {"measurement": "EC50", "setting": "DOP-R1 [9]; read-out: Mean (± SEM) EC50 for TAN67 Stimulation, Striatum, striatal membranes, SoRI-9409-vehicle/Yohimbine (2 mg/kg I.P.)", "result": "> 100", "unit": "µM"}, {"measurement": "EC50", "setting": "DOP-R1 [9]; read-out: Mean (± SEM) EC50 for TAN67 Stimulation, Striatum, striatal membranes, SoRI-9409-vehicle/Yohimbine-vehicle", "result": "> 100", "unit": "µM"}]}
{"smiles": "COC(=O)[C@@H]1[C@H]2C[C@H]3c4[nH]c5ccccc5c4CCN3C[C@@H]2CC[C@@H]1O", "note": "[Yohimbine, reference compound]", "values": [{"measurement": "active lever presses (30 min)", "setting": "Long-Evans rats; SoRI-9409-vehicle prior to yohimbine 2 mg/kg I.P., ethanol-extinguished rats, vehicle/vehicle 10.9 ± 1.8", "result": "48.0 ± 7.0", "unit": "presses"}, {"measurement": "Inactive lever presses", "setting": "Long-Evans rats; SoRI-9409-vehicle, Yohimbine group (2 mg/kg I.P.)", "result": "2.1 ± 0.7"}]}
{"smiles": "Oc1ccc2c3c1O[C@H]1c4[nH]c5ccccc5c4C[C@@]4(O)[C@@H](C2)N(CC2CC2)CC[C@]314", "note": "[naltrindole, naltrindole hydrochloride]", "values": [{"measurement": "IC50", "setting": "DOP-R1 [1]", "result": "0.046 ± 0.0038", "unit": "µM"}]}
